Results taken from patent publication US5449612A, “Process for identifying candida by means of chromogenic substances” (Serbio, priority 1990, dated 1995).
Non-standard residues stand in square brackets, D forms with d. Residues, ends and D or L forms follow the SMILES beside them. *: point of attachment. Hyp = O=C(O)[C@@H]1C[C@@H](O)CN1; pNA = O=[N+]([O-])c1ccc(N*)cc1; Phg = N[C@H](C(=O)O)c1ccccc1; Pip = O=C(O)[C@@H]1CCCCN1; Boc = CC(C)(C)OC(=O)*

Legend:
Candida albicans = assay: Tests on substrates against Candida albicans, colour reading on buffered gelose; format: cell-based; details: Table I; for Reading at 24 h: medium pH 6.0, YNB, glucose, agar, gentamycin, coloration or fluorescence
T. glabrata = assay: Tests on substrates against T. glabrata, colour reading on buffered gelose; for T. GLABRATA reading at 24 h: key: -: none; +: weak; ++: moderate; +++: intense; ++++: very intense; format: cell-based, Torulopsis glabrata; details: for T. GLABRATA reading at 24 h: pH 6
Candida tropicalis = assay: Tests on substrates against Candida tropicalis, colour reading on buffered gelose; format: cell-based; details: for C. TROPICALIS reading at 24 h: Table III, medium pH 6.0; for Reading at 24 h: Table II, medium pH 6.0, YNB, glucose, agar, gentamycin
Candida krusei = assay: Tests on substrates against Candida krusei, colour reading on buffered gelose; format: cell-based; details: Table IV; medium pH 6.0; note: key: -: none; +: weak; ++: moderate; +++: intense; ++++: very intense
Candida guillermondii = assay: Tests on substrates against Candida guillermondii; set-up: Reading at 24 h: key to the marks not given beside the values
C. tropicalis = assay: Diagnosis from isolated colonies on gelose 2/5; format: cell-based, Candida tropicalis

SMILES: CC(C)(C)OC(=O)NCC(=O)N1CCC[C@H]1C(=O)N[C@@H](CCCNC(=N)N)C(=O)Nc1ccc([N+](=O)[O-])cc1 [Boc-Gly-L-Pro-L-Arg-pNA.AcOH] (Boc-Gly-Pro-Arg-pNA)
- Reading at 24 h (Candida albicans): ++
- Specificity: interference with T. glabrata (T. glabrata): (e) and (f)
- T. GLABRATA reading at 24 h (T. glabrata): +++
- Specificity: interference with C. tropicalis (Candida tropicalis; Table I): (b)
- C. TROPICALIS reading at 24 h (Candida tropicalis): +
- Specificity: interference with C. tropicalis (Candida tropicalis; Table IV): (b)
- Reading at 24 h (Candida krusei): -
- Specificity: interference with C. guillermondii (Candida guillermondii; Table I): (d)

SMILES: CC(C)(C)OC(=O)N1C[C@H](O)C[C@H]1C(=O)N1CCC[C@H]1C(=O)N[C@@H](CCCNC(=N)N)C(=O)Nc1ccc([N+](=O)[O-])cc1 [Boc-L-4Hyp-L-Pro-L-Arg-pNA.AcOH] (Boc-[Hyp]-Pro-Arg-pNA)
- Reading at 24 h (Candida albicans): ++++
- Specificity: interference with C. tropicalis (Candida tropicalis; Table I): (b)

SMILES: CC(C)C[C@H](NC(=O)OC(C)(C)C)C(=O)N[C@@H](CO)C(=O)N[C@H](C(=O)N[C@@H](CCCNC(=N)N)C(=O)Nc1ccc([N+](=O)[O-])cc1)[C@@H](C)O [Boc-L-Leu-L-Ser-L-Thr-L-Arg-pNA.AcOH] (Boc-LSTR-pNA)
- Specificity: interference with C. tropicalis (Candida tropicalis; Table V): (c)
- Reading at 24 h (Candida guillermondii; Table V): ++++

SMILES: CC(=O)O.N=C(N)NCCC[C@H](NC(=O)OCc1ccccc1)C(=O)Nc1ccc([N+](=O)[O-])cc1 [Cbo-L-Arg-pNA.AcOH]
- Reading at 24 h (Candida albicans): -

SMILES: O=C(Nc1ccc([N+](=O)[O-])cc1)[C@@H]1CCCN1C(=O)OCc1ccccc1 [Cbo-L-Pro-pNA]
- Reading at 24 h (Candida albicans): -

SMILES: N=C(N)NCCC[C@H](NC(=O)[C@H]1CCCN1C(=O)[C@H]1CCCN1)C(=O)Nc1ccc([N+](=O)[O-])cc1 [H-D-Pro-D-Pro-L-Arg-pNA.2AcOH] (H-[dP]-[dP]-Arg-pNA)
- Reading at 24 h (Candida tropicalis): -

SMILES: N=C(N)NCCC[C@H](NC(=O)[C@@H]1CCCN1C(=O)CNC(=O)[C@H]1CCCN1)C(=O)Nc1ccc([N+](=O)[O-])cc1 [H-D-Pro-Gly-L-Pro-L-Arg-pNA.2AcOH] (H-[dP]GPR-pNA)
- T. GLABRATA reading at 24 h (T. glabrata): +
- C. TROPICALIS reading at 24 h (Candida tropicalis): +

SMILES: N=C(N)NCCC[C@H](NC(=O)[C@@H](NC(=O)[C@H]1CCCN1)c1ccccc1)C(=O)Nc1ccc([N+](=O)[O-])cc1 [H-D-Pro-L-Phg-L-Arg-pNA.2AcOH] (H-[dP]-[Phg]-Arg-pNA)
- T. GLABRATA reading at 24 h (T. glabrata): -
- C. TROPICALIS reading at 24 h (Candida tropicalis): ++

SMILES: N=C(N)NCCC[C@H](NC(=O)[C@@H]1CCCN1C(=O)[C@H]1CCCN1)C(=O)Nc1ccc([N+](=O)[O-])cc1 [H-D-Pro-L-Pro-L-Arg-pNA.2AcOH] (H-[dP]-Pro-Arg-pNA)
- Reading at 24 h (Candida tropicalis): ++++

SMILES: N=C(N)NCCC[C@H](NC(=O)[C@@H]1CCCN1C(=O)CNC(=O)CN)C(=O)Nc1ccc([N+](=O)[O-])cc1 [H-Gly-Gly-L-Pro-L-Arg-pNA.2AcOH] (H-GGPR-pNA)
- T. GLABRATA reading at 24 h (T. glabrata): +
- C. TROPICALIS reading at 24 h (Candida tropicalis): +
- Specificity: interference with C. tropicalis (Candida tropicalis; Table IV): (d)
- Reading at 24 h (Candida krusei): ++

SMILES: N=C(N)NCCC[C@H](NC(=O)[C@@H]1CCCCN1C(=O)CN)C(=O)Nc1ccc([N+](=O)[O-])cc1 [H-Gly-L-Pip-L-Arg-pNA.2AcOH] (H-Gly-[Pip]-Arg-pNA)
- Reading at 24 h (Candida albicans): ++
- Specificity: interference with C. tropicalis (Candida tropicalis; Table I): (b)

SMILES: NCC(=O)N1CCC[C@H]1C(=O)Nc1ccc([N+](=O)[O-])cc1 [H-Gly-L-Pro-pNA.AcOH] (H-Gly-Pro-pNA)
- hydrolysis by the strains of C. tropicalis (C. tropicalis): hydrolyzed

SMILES: CC(=O)O.O=C(Nc1ccc([N+](=O)[O-])cc1)[C@H]1NCCC1O (stereo partly drawn) [H-L-3Hyp-pNA.AcOH]
- Specificity: nonspecific for the strains of Candida albicans (Candida albicans): (a)
- Reading at 24 h (Candida albicans): +++

SMILES: N=C(N)NCCC[C@H](NC(=O)[C@@H]1CCCN1C(=O)[C@@H]1C[C@@H](O)CN1)C(=O)Nc1ccc([N+](=O)[O-])cc1 [H-L-4Hyp-L-Pro-L-Arg-pNA.2AcOH] (H-[Hyp]-Pro-Arg-pNA)
- Reading at 24 h (Candida albicans): ++++
- Specificity: interference with C. tropicalis (Candida tropicalis; Table I): (b)

SMILES: CC(=O)O.O=C(Nc1ccc([N+](=O)[O-])cc1)[C@@H]1CC(O)CN1 (stereo partly drawn) [H-L-4Hyp-pNA.AcOH]
- Specificity: nonspecific for the strains of Candida albicans (Candida albicans): (a)
- Reading at 24 h (Candida albicans): +++

SMILES: C[C@H](N)C(=O)N[C@@H](C)C(=O)N1CCC[C@H]1C(=O)Nc1ccc([N+](=O)[O-])cc1 [H-L-Ala-L-Ala-L-Pro-pNA.AcOH] (H-Ala-Ala-Pro-pNA)
- Specificity: nonspecific for the strains of Candida albicans (Candida albicans): (a)
- Reading at 48 h (Candida albicans; same medium, reading at 48 h): +

SMILES: C[C@H](N)C(=O)N1CCC[C@H]1C(=O)Nc1ccc([N+](=O)[O-])cc1 [H-L-Ala-L-Pro-pNA.AcOH] (H-Ala-Pro-pNA)
- Specificity: nonspecific for the strains of Candida albicans (Candida albicans): (a)
- Reading at 24 h (Candida albicans): ++

SMILES: CC(=O)O.CC(=O)O.N=C(N)NCCC[C@H](N)C(=O)Nc1ccc([N+](=O)[O-])cc1 [H-L-Arg-pNA.2AcOH]
- Specificity: nonspecific for the strains of Candida albicans (Candida albicans): (a)
- Reading at 24 h (Candida albicans): +++

SMILES: CC(=O)O.O=C(Nc1ccc2ccccc2c1)[C@@H]1C[C@@H](O)CN1 [H-L-Hyp-NA.AcOH, reference compound]
- Specificity: nonspecific for the strains of Candida albicans (Candida albicans): (a)
- Reading at 24 h (Candida albicans): ++

SMILES: CC(C)C[C@H](N)C(=O)NCC(=O)N[C@@H](CCCNC(=N)N)C(=O)Nc1ccc([N+](=O)[O-])cc1 [H-L-Leu-Gly-L-Arg-pNA.2AcOH] (H-Leu-Gly-Arg-pNA)
- Reading at 24 h (Candida tropicalis): ++++

SMILES: CC(=O)O.COc1cc(NC(=O)[C@@H]2CCCN2)cc2ccccc12 [H-L-Pro-(4-MeO)NA.AcOH, reference compound]
- Reading at 24 h (Candida albicans): -
